# Source: patent US9695155B2, “Herbicidal substituted pyrimidinyloxy benzene compounds” (E. I. DU PONT DE NEMOURS AND COMPANY, priority 2013, dated 2017)
# Key:
# large (Lg) crabgrass = assay: Test A postemergence; assay type: in vivo, Digitaria sanguinalis
# Summary of the method: (§1)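 Injury scores run from 0, no effect, to 100, complete control, judged by eye against untreated plants roughly 10 days after treatment. Chemicals carried a surfactant in a non-phytotoxic solvent and went onto loam–sand soil preemergence or onto one- to two-leaf seedlings postemergence.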
# velvetleaf = assay: Test A postemergence; assay type: in vivo, Abutilon theophrasti
# Summary of the method: as §1
# barnyardgrass = assay: Test B flooded paddy test; assay type: in vivo, Echinochloa crus-galli; conditions: Flood, 250 g ai/ha, 0 to 100 scale where 0 is no effect and 100 is complete control
# Summary of the method: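 Plants at 2-leaf stage; pots flooded to 3 cm above soil and compound applied directly into paddy water, depth held throughout. After 13 to 15 days in greenhouse, visual rating versus controls on 0 (no effect) to 100 (complete control) scale.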
# galium = assay: Test C preemergence; assay type: in vivo, Galium aparine
# Summary of the method: (§2)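 Seeds were sown in loam–sand blend and sprayed preemergence, while plants at 1- to 4-leaf stage (2–18 cm) in peat-based medium received postemergence sprays; test chemicals were formulated in a non-phytotoxic solvent with surfactant. After 13–15 days in a greenhouse, injury was rated visually against controls, 0 (no effect) to 100 (complete control).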
# corn = assay: Test C preemergence; assay type: in vivo, Zea mays
# Summary of the method: as §2
# morningglory [1] = assay: Test C preemergence; assay type: in vivo, Ipomoea coccinea
# Summary of the method: as §2
# yellow nutsedge = assay: Test C preemergence; assay type: in vivo, Cyperus esculentus
# Summary of the method: as §2
# wheat, winter = assay: Test C postemergence; assay type: in vivo, Triticum aestivum; conditions: for Wheat plant response rating: 31 g ai/ha
# Summary of the method: as §2
# lambsquarters = assay: Test C postemergence; assay type: in vivo, Chenopodium album; conditions: for Lambsquarters plant response rating: 31 g ai/ha
# Summary of the method: as §2
# morningglory [2] = assay: Test C postemergence; assay type: in vivo, Ipomoea coccinea; conditions: for Morningglory plant response rating: 31 g ai/ha
# Summary of the method: as §2
# ragweed = assay: Test C postemergence; assay type: in vivo, Ambrosia elatior; conditions: for Ragweed plant response rating: 31 g ai/ha
# Summary of the method: as §2
# soybean = assay: Test C postemergence; assay type: in vivo, Glycine max; conditions: for Soybean plant response rating: 31 g ai/ha
# Summary of the method: as §2
# oilseed rape = assay: Test C postemergence; assay type: in vivo, Brassica napus; conditions: for Oilseed Rape plant response rating: 31 g ai/ha
# Summary of the method: as §2
# [3] = 125 g ai/ha, 0 to 100 scale where 0 is no effect and 100 is complete control
# [4] = 500 g ai/ha, 0 to 100 scale where 0 is no effect and 100 is complete control
# [5] = 125 g ai/ha, preemergence, scale 0 (no effect) to 100 (complete control)
# [6] = 250 g ai/ha, preemergence, scale 0 (no effect) to 100 (complete control)
# [7] = Preemergence, 62 g ai/ha, scale 0 to 100, 0 no effect, 100 complete control
# [8] = postemergence, visual rating, scale 0 to 100 (0 no effect, 100 complete control), 13 to 15 days
# [9] = 125 g ai/ha, postemergence, visual rating, scale 0 to 100 (0 no effect, 100 complete control)
# [10] = Postemergence, 62 g ai/ha, scale 0 to 100 (0 no effect, 100 complete control), 13 to 15 days
smiles,measurement,setting,value
N#Cc1cnn(-c2c(C#N)cccc2Oc2ncc(Cl)cn2)c1 [Compound 200],"Crabgrass, Large plant response rating",large (Lg) crabgrass; [3],90
same,"Plant response rating, Crabgrass, Large",large (Lg) crabgrass; [4],90
same,Velvetleaf plant response rating,velvetleaf; [3],100
same,"Plant response rating, Velvetleaf",velvetleaf; [4],100
same,"Plant response rating, Barnyardgrass",barnyardgrass,20
same,Galium plant response rating,galium; [5],100
same,Galium plant response rating,galium; [6],100
same,"Plant response rating, Galium",galium; [7],100
same,Corn plant response rating,corn; [5],60
same,Corn plant response rating,corn; [6],75
same,"Plant response rating, Corn",corn; [7],5
same,Morningglory plant response rating,morningglory [1]; [5],98
same,Morningglory plant response rating,morningglory [1]; [6],98
same,"Plant response rating, Morningglory",morningglory [1]; [7],95
same,"Nutsedge, Yellow plant response rating",yellow nutsedge; [5],90
same,"Nutsedge, Yellow plant response rating",yellow nutsedge; [6],95
same,"Plant response rating, Nutsedge, Yellow",yellow nutsedge; [7],40
same,Wheat plant response rating,"wheat, winter; [8]",0
same,"Plant response rating, Wheat","wheat, winter; [9]",5
same,"Plant response rating (0 to 100), Wheat","wheat, winter; 250 g ai/ha, postemergence",5
same,"Plant response rating, Wheat","wheat, winter; [10]",0
same,Lambsquarters plant response rating,lambsquarters; [8],80
same,"Plant response rating, Lambsquarters",lambsquarters; [9],85
same,"Plant response rating (0 to 100), Lambsquarters","lambsquarters; 250 g ai/ha, postemergence",95
same,"Plant response rating, Lambsquarters",lambsquarters; [10],80
same,Morningglory plant response rating,morningglory [2]; [8],85
same,"Plant response rating, Morningglory",morningglory [2]; [9],95
same,"Plant response rating (0 to 100), Morningglory","morningglory [2]; 250 g ai/ha, postemergence",95
same,"Plant response rating, Morningglory",morningglory [2]; [10],80
same,Ragweed plant response rating,ragweed; [8],25
same,"Plant response rating, Ragweed",ragweed; [9],55
same,"Plant response rating (0 to 100), Ragweed","ragweed; 250 g ai/ha, postemergence",85
same,"Plant response rating, Ragweed",ragweed; [10],40
same,Soybean plant response rating,soybean; [8],90
same,"Plant response rating, Soybean",soybean; [9],95
same,"Plant response rating (0 to 100), Soybean","soybean; 250 g ai/ha, postemergence",90
same,"Plant response rating, Soybean",soybean; [10],95
same,Oilseed Rape plant response rating,oilseed rape; [8],55
same,"Plant response rating, Oilseed Rape",oilseed rape; [9],50
same,"Plant response rating (0 to 100), Oilseed Rape","oilseed rape; 250 g ai/ha, postemergence",70
same,"Plant response rating, Oilseed Rape",oilseed rape; [10],55
"N#Cc1cccc(Oc2ncc(Cl)cn2)c1-n1cc(OCC(F)(F)F)cn1 [Compound 274, 3-[(5-chloro-2-pyrimidinyl)oxy]-2-[4-(2,2,2-trifluoroethoxy)-1H-pyrazol-1-yl]benzonitrile]",pest or weed control at 125 g/ha,"large (Lg) crabgrass; Digitaria sanguinalis, post-emergence, 240 h, 125 g ai/ha, 0 to 100 scale, 0 no effect, 100 complete control, read-out: Plant response rating, Crabgrass, Large",90%
same,pest or weed control at 500 g/ha,"large (Lg) crabgrass; Digitaria sanguinalis, post-emergence, 240 h, 500 g ai/ha, 0 to 100 scale where 0 is no effect and 100 is complete control, read-out: Plant response rating, Crabgrass, Large",90%
same,pest or weed control at 125 g/ha,"velvetleaf; Abutilon theophrasti, post-emergence, 240 h, 125 g ai/ha, 0 to 100 scale, 0 no effect, 100 complete control, read-out: Plant response rating, Velvetleaf",100%
same,pest or weed control at 500 g/ha,"velvetleaf; Abutilon theophrasti, post-emergence, 240 h, 500 g ai/ha, 0 to 100 scale where 0 is no effect and 100 is complete control, read-out: Plant response rating, Velvetleaf",100%
same,pest or weed control at 250 g/ha,"barnyardgrass; Echinochloa crus-galli, read-out: Plant response rating, Barnyardgrass",65%
same,pest or weed control at 16 g/ha,"galium; Galium, pre-emergence, 16 g ai/ha, preemergence, scale 0 to 100 (0 no effect, 100 complete control), read-out: Galium plant response rating",90%
same,pest or weed control at 125 g/ha,"galium; Galium, pre-emergence, 125 g ai/ha, preemergence, scale 0 (no effect) to 100 (complete control), read-out: Galium plant response rating",98%
same,pest or weed control at 62 g/ha,"galium; Galium, pre-emergence, Preemergence, 62 g ai/ha, scale 0 to 100, 0 no effect, 100 complete control, read-out: Plant response rating, Galium",98%
same,plant injury at 16 g/ha,"corn; Zea mays, pre-emergence, 16 g ai/ha, preemergence, scale 0 to 100 (0 no effect, 100 complete control), read-out: Corn plant response rating",5%
same,plant injury at 125 g/ha,"corn; Zea mays, pre-emergence, 125 g ai/ha, preemergence, scale 0 (no effect) to 100 (complete control), read-out: Corn plant response rating",80%
same,"Corn plant response rating (crop injury, 0 = no effect, 100 = complete kill) at 62 g/ha","corn; Zea mays, pre-emergence, Preemergence, 62 g ai/ha, scale 0 to 100, 0 no effect, 100 complete control",85%
same,pest or weed control at 16 g/ha,"morningglory [1]; Ipomoea, pre-emergence, 16 g ai/ha, preemergence, scale 0 to 100 (0 no effect, 100 complete control), read-out: Morningglory plant response rating",35%
same,pest or weed control at 125 g/ha,"morningglory [1]; Ipomoea, pre-emergence, 125 g ai/ha, preemergence, scale 0 (no effect) to 100 (complete control), read-out: Morningglory plant response rating",100%
same,pest or weed control at 62 g/ha,"morningglory [1]; Ipomoea, pre-emergence, Preemergence, 62 g ai/ha, scale 0 to 100, 0 no effect, 100 complete control, read-out: Plant response rating, Morningglory",100%
same,pest or weed control at 16 g/ha,"yellow nutsedge; Cyperus, pre-emergence, 16 g ai/ha, preemergence, scale 0 to 100 (0 no effect, 100 complete control), read-out: Nutsedge, Yellow plant response rating",20%
same,pest or weed control at 125 g/ha,"yellow nutsedge; Cyperus, pre-emergence, 125 g ai/ha, preemergence, scale 0 (no effect) to 100 (complete control), read-out: Nutsedge, Yellow plant response rating",95%
same,pest or weed control at 62 g/ha,"yellow nutsedge; Cyperus, pre-emergence, Preemergence, 62 g ai/ha, scale 0 to 100, 0 no effect, 100 complete control, read-out: Plant response rating, Nutsedge, Yellow",85%
same,Wheat plant response rating,"wheat, winter; [8]",5
same,plant injury at 16 g/ha,"wheat, winter; Triticum aestivum, post-emergence, 16 g ai/ha, postemergence, 0 is no effect, 100 is complete control, read-out: Plant response rating (0 to 100), Wheat",5%
same,plant injury at 125 g/ha,"wheat, winter; Triticum aestivum, post-emergence, 125 g ai/ha, postemergence, visual rating, scale 0 to 100 (0 no effect, 100 complete control), read-out: Plant response rating, Wheat",15%
same,plant injury at 62 g/ha,"wheat, winter; Triticum aestivum, post-emergence, Postemergence, 62 g ai/ha, scale 0 to 100 (0 no effect, 100 complete control), 13 to 15 days, read-out: Plant response rating, Wheat",5%
same,Lambsquarters plant response rating,lambsquarters; [8],95
same,pest or weed control at 16 g/ha,"lambsquarters; Chenopodium album, post-emergence, 16 g ai/ha, postemergence, 0 is no effect, 100 is complete control, read-out: Plant response rating (0 to 100), Lambsquarters",85%
same,pest or weed control at 125 g/ha,"lambsquarters; Chenopodium album, post-emergence, 125 g ai/ha, postemergence, visual rating, scale 0 to 100 (0 no effect, 100 complete control), read-out: Plant response rating, Lambsquarters",98%
same,pest or weed control at 62 g/ha,"lambsquarters; Chenopodium album, post-emergence, Postemergence, 62 g ai/ha, scale 0 to 100 (0 no effect, 100 complete control), 13 to 15 days, read-out: Plant response rating, Lambsquarters",95%
same,Morningglory plant response rating,morningglory [2]; [8],85
same,pest or weed control at 16 g/ha,"morningglory [2]; Ipomoea, post-emergence, 16 g ai/ha, postemergence, 0 is no effect, 100 is complete control, read-out: Plant response rating (0 to 100), Morningglory",85%
same,pest or weed control at 125 g/ha,"morningglory [2]; Ipomoea, post-emergence, 125 g ai/ha, postemergence, visual rating, scale 0 to 100 (0 no effect, 100 complete control), read-out: Plant response rating, Morningglory",95%
same,pest or weed control at 62 g/ha,"morningglory [2]; Ipomoea, post-emergence, Postemergence, 62 g ai/ha, scale 0 to 100 (0 no effect, 100 complete control), 13 to 15 days, read-out: Plant response rating, Morningglory",95%
same,Ragweed plant response rating,ragweed; [8],60
same,pest or weed control at 16 g/ha,"ragweed; Ambrosia artemisiifolia, post-emergence, 16 g ai/ha, postemergence, 0 is no effect, 100 is complete control, read-out: Plant response rating (0 to 100), Ragweed",50%
same,pest or weed control at 125 g/ha,"ragweed; Ambrosia artemisiifolia, post-emergence, 125 g ai/ha, postemergence, visual rating, scale 0 to 100 (0 no effect, 100 complete control), read-out: Plant response rating, Ragweed",75%
same,pest or weed control at 62 g/ha,"ragweed; Ambrosia artemisiifolia, post-emergence, Postemergence, 62 g ai/ha, scale 0 to 100 (0 no effect, 100 complete control), 13 to 15 days, read-out: Plant response rating, Ragweed",40%
same,Soybean plant response rating,soybean; [8],70
same,"Soybean plant response rating (crop injury, 0-100 scale) at 16 g/ha","soybean; Glycine max, post-emergence, 16 g ai/ha, postemergence, 0 is no effect, 100 is complete control",45%
same,"Soybean plant response rating (crop injury, 0-100 scale) at 125 g/ha","soybean; Glycine max, post-emergence, 125 g ai/ha, postemergence, visual rating, scale 0 to 100 (0 no effect, 100 complete control), read-out: Plant response rating, Soybean",98%
same,"Soybean plant response rating (crop injury, 0-100 scale) at 62 g/ha","soybean; Glycine max, post-emergence, Postemergence, 62 g ai/ha, scale 0 to 100 (0 no effect, 100 complete control), 13 to 15 days",90%
same,Oilseed Rape plant response rating,oilseed rape; [8],80
same,plant injury at 16 g/ha,"oilseed rape; Brassica napus, post-emergence, 16 g ai/ha, postemergence, 0 is no effect, 100 is complete control, read-out: Plant response rating (0 to 100), Oilseed Rape",60%
same,plant injury at 125 g/ha,"oilseed rape; Brassica napus, post-emergence, 125 g ai/ha, postemergence, visual rating, scale 0 to 100 (0 no effect, 100 complete control), read-out: Plant response rating, Oilseed Rape",90%
same,plant injury at 62 g/ha,"oilseed rape; Brassica napus, post-emergence, Postemergence, 62 g ai/ha, scale 0 to 100 (0 no effect, 100 complete control), 13 to 15 days, read-out: Plant response rating, Oilseed Rape",85%
